Assay [1] deals with T1, human vascular endothelial growth factor receptor 2 (VEGF-R2) (Homo sapiens, UniProt P35968, DEL940-989/E990V).
T1 construct: VEGF-R2D50 contains residues 806-939 and 990-1171; made in house; host or cells: baculovirus/insect cell system
Description: VEGF-R2 coupled spectrophotometric assay (FLVK). It is filed as biochemical. Conditions: unphosphorylated VEGF-R2D50 (FLVK). The text has this:
This construct determines the ability of a test compound to inhibit tyrosine kinase activity. A construct (VEGF-R2D50) of the cytosolic domain of human vascular endothelial growth factor receptor 2 (VEGF-R2) lacking the 50 central residues of the 68 residues of the kinase insert domain was expressed in a baculovirus/insect cell system. Of the 1356 residues of full-length VEGF-R2, VEGF-R2D50 contains residues 806-939 and 990-1171, and also one point mutation (E990V) within the kinase insert domain relative to wild-type VEGF-R2. Autophosphorylation of the purified construct was performed by incubation of the enzyme at a concentration of […] in the presence of 3 mM ATP and 40 mM MgCl2 in 100 mM HEPES, pH 7.5, containing 5% glycerol and 5 mM DTT, at 4° C. for 2 h. […] See Parast et al., Biochemistry, 37, 16788-16801 (1998).
The production of ADP from ATP that accompanies phosphoryl transfer was coupled to oxidation of NADH using phosphoenolpyruvate (PEP) and a system having pyruvate kinase (PK) and lactic dehydrogenase (LDH). The oxidation of NADH was monitored by following the decrease of absorbance at 340 nm (e340=6.22 cm^−1 mM^−1) using a Beckman DU 650 spectrophotometer. Assay conditions for phosphorylated VEGF-R2D50 (indicated as FLVK-P in the tables below) were the following: 1 mM PEP; […]; 50 units of LDH/mL; 20 units of PK/mL; 5 mM DTT; 5.1 mM poly(E4Y1); 1 mM ATP; and 25 mM MgCl2 in 200 mM HEPES, pH 7.5. Assay conditions for unphosphorylated VEGF-R2D50 (indicated as FLVK in the tables) were the following: 1 mM PEP; […]; 50 units of LDH/mL; 20 units of PK/mL; 5 mM DTT; 20 mM poly(E4Y1); 3 mM ATP; and 60 mM MgCl2 and 2 mM MnCl2 in 200 mM HEPES, pH 7.5. Assays were initiated with 5 to 40 nM of enzyme. Ki values were determined by measuring enzyme activity in the presence of varying concentrations of test compounds. The percent inhibition at 50 nm (% inhibition @ 50 nm) was determined by linear least-squares regression analysis of absorbance as a function of time. The binding inhibitions were fitted to equation as described by Morrison. The data were analyzed using Enzyme Kinetic and Kaleidagraph software.

Assay [2] relates to human umbilical vein endothelial cells (HUVEC). Briefly: HUVEC+VEGF Proliferation Assay. It is filed as cell-based. Conditions: VEGF-stimulated proliferation, final VEGF 6 ng/mL, 72 hours, MTT dye reduction. On the procedure:
This assay determines the ability of a test compound to inhibit the growth factor-stimulated proliferation of human umbilical vein endothelial cells (“HUVEC”). HUVEC cells (passage 3-4, Clonetics, Corp.) were thawed into EGM2 culture medium (Clonetics Corp) in T75 flasks. Fresh EGM2 medium was added to the flasks 24 hours later. Four or five days later, cells were exposed to another culture medium (F12K medium supplemented with 10% fetal bovine serum (FBS), […] endothelial cell growth supplement (ECGS), and 0.1 mg/mL heparin). Exponentially-growing HUVEC cells were used in experiments thereafter. Ten to twelve thousand HUVEC cells were plated in 96-well dishes in […] of rich, culture medium (described above). The cells were allowed to attach for 24 hours in this medium. The medium was then removed by aspiration and […] of starvation media (F12K+1% FBS) was added to each well. After 24 hours, […] of test agent dissolved in 1% DMSO in starvation medium or this vehicle alone was added into each treatment well; the final DMSO concentration was 0.1%. One hour later, […] of VEGF (30 ng/mL) in starvation media was added to all wells except those containing untreated controls; the final VEGF concentration was 6 ng/mL. Cellular proliferation was quantified 72 hours later by MTT dye reduction, at which time cells were exposed for 4 hours MTT (Promega Corp.). Dye reduction was stopped by addition of a stop solution (Promega Corp.) and absorbance at 595 nm was determined on a 96-well spectrophotometer plate reader.

The structures appear in SMILES notation.

T1 sequence (P35968 with tags, fused parts or gaps DEL940-989/E990V limits assumed): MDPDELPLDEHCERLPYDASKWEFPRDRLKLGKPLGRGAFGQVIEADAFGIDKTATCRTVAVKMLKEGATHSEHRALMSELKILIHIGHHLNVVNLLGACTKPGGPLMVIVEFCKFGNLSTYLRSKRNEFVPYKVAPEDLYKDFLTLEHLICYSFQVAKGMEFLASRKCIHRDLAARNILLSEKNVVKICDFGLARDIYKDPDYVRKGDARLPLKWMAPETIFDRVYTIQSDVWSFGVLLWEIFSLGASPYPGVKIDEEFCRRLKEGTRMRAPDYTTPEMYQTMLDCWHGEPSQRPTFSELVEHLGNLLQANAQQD

By Ki is commonly meant the equilibrium dissociation constant of an inhibitor or competing ligand from its target. For orientation: IC50 means the concentration that inhibits the measured activity by half. `CNC(=O)c1cccc2c(F)c(Oc3ccnc4cc(C(=O)N5CC[C@H](OC)C5)sc34)ccc12` [Example 1, 5-Fluoro-6-[(2-{[(3S)-3-methoxypyrrolidin-1-yl]carbonyl}thieno[3,2-b]pyridin-7-yl)oxy]-N-methyl-1-naphthamide]: in assay [1], the Ki was less than 1 nM. Also, in assay [2], the IC50 was less than 1 nM.
Consider `CNC(=O)c1cccc2c(F)c(Oc3ccnc4cc(C(=O)N(C)C)sc34)ccc12` [Example 2, 7-({1-Fluoro-5-[(methylamino)carbonyl]-2-naphthyl}oxy)-N,N-dimethylthieno[3,2-b]pyridine-2-carboxamide], for which, in assay [2], the IC50 was less than 1 nM.
For `CNC(=O)c1cccc2cc(Oc3ccnc4cc(C(=O)N5CC[C@H](OC)C5)sc34)ccc12` [Example 3, 6-[(2-{[(3S)-3-methoxypyrrolidin-1-yl]carbonyl}thieno[3,2-b]pyridin-7-yl)oxy]-N-methyl-1-naphthamide], the Ki in assay [1] was less than 1 nM. Moreover, the 50% inhibitory concentration (IC50) in assay [2] is less than 1 nM.
In the case of `CNC(=O)c1cccc2cc(Oc3ccnc4cc(C(=O)N(C)C)sc34)ccc12` [Example 4, N,N-Dimethyl-7-({5-[(methylamino)carbonyl]-2-naphthyl}oxy) thieno[3,2-b]pyridine-2-carboxamide], the Ki in assay [1] was less than 1 nM. Further, the IC50 in assay [2] is 1 to 10 nM.
The corresponding values for `CNC(=O)c1cccc2cc(Oc3ccnc4cc(C(=O)N5CC[C@@H](N(C)C)C5)sc34)ccc12` [Example 5, 6-[(2-{[(3R)-3-(dimethylamino)pyrrolidin-1-yl]carbonyl}thieno[3,2-b]pyridin-7-yl)oxy]-N-methyl-1-naphthamide] are 1 to 10 nM and 1 to 10 nM.
The matching figures for `CNC(=O)c1cccc2cc(Oc3ccnc4cc(C(=O)N(C)CCN(C)C)sc34)ccc12` [Example 6, N-[2-(Dimethylamino)ethyl]-N-methyl-7-({5-[(methylamino)carbonyl]-2-naphthyl}oxy)thieno[3,2-b]pyridine-2-carboxamide]: less than 1 nM and greater than 10 nM.
The corresponding values for `CNC(=O)c1cccc2cc(Oc3ccnc4cc(C(=O)N(C)CCCN(C)C)sc34)ccc12` [Example 7, N-[3-(Dimethylamino)propyl]-N-methyl-7-({5-[(methylamino)carbonyl]-2-naphthyl}oxy)thieno[3,2-b]pyridine-2-carboxamide] are 1 to 10 nM and greater than 10 nM.
`CNC(=O)c1cccc2cc(Oc3ccnc4cc(C(=O)N(C)CCO)sc34)ccc12` [Example 8, N-(2-Hydroxyethyl)-N-methyl-7-({5-[(methylamino)carbonyl]-2-naphthyl}oxy)thieno[3,2-b]pyridine-2-carboxamide]: the Ki in assay [1] fell in the range of 1 to 10 nM. Besides, the IC50 in assay [2] was greater than 10 nM.
In turn, `CN(C)[C@@H]1CCN(C(=O)c2cc3nccc(Oc4ccc5c(C(=O)NC6CC6)cccc5c4)c3s2)C1` [Example 9, N-Cyclopropyl-6-[(2-{[(3R)-3-(dimethylamino)pyrrolidin-1-yl]carbonyl}thieno[3,2-b]pyridin-7-yl)oxy]-1-naphthamide] registered a Ki in assay [1] of less than 1 nM.
Same read-out and setting: the same measure for `CNCC1CCN(C(=O)c2cc3nccc(Oc4ccc5c(C(=O)NC)cccc5c4)c3s2)C1` (centres unmarked) [Example 10, N-Methyl-6-{[2-({3-[(methylamino)methyl]pyrrolidin-1-yl}carbonyl)thieno[3,2-b]pyridin-7-yl]oxy}-1-naphthamide]: less than 1 nM; for `COCCNC(=O)c1cccc2cc(Oc3ccnc4cc(C(=O)N5CC[C@@H](N(C)C)C5)sc34)ccc12` [Example 11, 6-[(2-{[(3R)-3-(Dimethylamino)pyrrolidin-1-yl]carbonyl}thieno[3,2-b]pyridin-7-yl)oxy]-N-(2-methoxyethyl)-1-naphthamide]: 1 to 10 nM.
The compound `O=C(NCCN1CCOCC1)c1cccc2cc(Oc3ccnc4cc(C(=O)N5CC[C@@H](O)C5)sc34)ccc12` [Example 13, 6-[(2{[(3R)-3-Hydroxypyrrolidin-1-yl]carbonyl}thieno[3,2-b]pyridin-7-yl)oxy]-N-(2-morpholin-4-ylethyl)-1-naphthamide] gave a Ki in assay [1] of less than 1 nM. Also, the IC50 in assay [2] fell in the range of 1 to 10 nM.
The matching figures for `Cn1ccnc1-c1cc2nccc(Oc3ccc4c(C(=O)NCCN5CCOCC5)cccc4c3)c2s1` [Example 14, 6-{[2-(1-Methyl-1H-imidazol-2-yl)thieno[3,2-b]pyridin-7-yl]oxy}-N-(2-morpholin-4-ylethyl)-1-naphthamide]: less than 1 nM and 1 to 10 nM.
The corresponding values for `O=C(NCCN1CCOCC1)c1cccc2cc(Oc3ccnc4ccsc34)ccc12` [Example 15, N-(2-Morpholin-4-ylethyl)-6-(thieno[3,2-b]pyridin-7-yloxy)-1-naphthamide] are 1 to 10 nM and greater than 10 nM.
The matching figures for `Cn1ccnc1-c1cc2nccc(Oc3ccc4c(C(=O)NCCCN5CCOCC5)cccc4c3)c2s1` [Example 30, 6-[2-(1-Methyl-1H-imidazol-2-yl)-thieno[3,2-b]pyridin-7-yloxy]-naphthalene-1-carboxylic acid (3-morpholin-4-yl-propyl)-amide]: less than 1 nM and less than 1 nM.
Compound `O=C(NCCN1CCOCC1)c1cccc2cc(Oc3ccnc4cc(C(=O)N5CCC5)sc34)ccc12` [Example 31, 6-[2-(Azetidine-1-carbonyl)-thieno[3,2-b]pyridin-7-yloxy]-naphthalene-1-carboxylic acid (2-morpholin-4-yl-ethyl)-amide] registered a Ki in assay [1] of less than 1 nM. In addition, the IC50 in assay [2] was 1 to 10 nM.
`O=C(NCCCN1CCCCC1)c1cccc2cc(Oc3ccnc4ccsc34)ccc12` [Example 36, 6-(Thieno[3,2-b]pyridin-7-yloxy)-naphthalene-1-carboxylic acid (3-piperidin-1-yl-propyl)-amide]: the Ki in assay [1] is greater than 10 nM.
Still for that read-out and setting: the value for `O=C(NCCCN1CCCC1)c1cccc2cc(Oc3ccnc4ccsc34)ccc12` [Example 37, 6-(Thieno[3,2-b]pyridin-7-yloxy)-naphthalene-1-carboxylic acid (3-pyrrolidin-1-yl-propyl)-amide] was greater than 10 nM; that for `CN(C)CCNC(=O)c1cccc2cc(Oc3ccnc4ccsc34)ccc12` [Example 41, 6-(Thieno[3,2-b]pyridin-7-yloxy)-naphthalene-1-carboxylic acid (2-dimethylamino-ethyl)-amide] was greater than 10 nM.
Compound `CNC(=O)c1cccc2cc(Oc3ccnc4cc(O)ccc34)ccc12` [Example 44, 6-(7-Hydroxy-quinolin-4-yloxy)-naphthalene-1-carboxylic Acid Methylamide] registered a Ki in assay [1] greater than 10 nM.
As to `CCCCNC(=O)c1cccc2cc(Oc3ccnc4cc(OC)ccc34)ccc12` [Example 47, 6-(7-Methoxy-quinolin-4-yloxy)-naphthalene-1-carboxylic Acid Butylamide], in assay [2], the IC50 was greater than 10 nM.
Still for that read-out and setting: the value for `CCCCNC(=O)c1cccc2cc(Oc3ccnc4cc(O)ccc34)ccc12` [Example 48, 6-(7-Hydroxy-quinolin-4-yloxy)-naphthalene-1-carboxylic Acid Butylamide] was 1 to 10 nM.
In assay [1], `O=C(NCCN1CCOCC1)c1cccc2cc(Oc3ncnc4ccsc34)ccc12` [Example 52, N-(2-Morpholin-4-ylethyl)-6-(thieno[3,2-d]pyrimidin-4-yloxy)-1-naphthamide] gave a Ki greater than 10 nM.

For the origin of these results see patent publication US20050070508A1, “Napthalene carboxamides and their derivatives useful as new anti-angiogenic agents” (AGOURON PHARMACEUTICALS, INC., priority 2003, published 2005).
